Tested on: EHEC binding to Caco2 cells
Assay: inhibition of pathogen (EHEC) binding to human colon cancer cells
Assay type: cell-based
Conditions: EHEC (2×10^8 cfu/ml) on Caco2 cells; test solution 5-10 mg/ml hydrolysed fibre; 1 h at 37° C.; cfu versus blank
Procedure: Different oligosaccharides obtained by hydrolysis of fibres were used to measure inhibition of pathogen binding to human colon cancer cells. Cells for the binding experiment are grown under standard conditions. The growth medium is removed from the cells and 0.2 ml of minimal essential medium, 0.4 ml EHEC solution (2×10^8 cfu/ml) and 0.4 ml of test solution (5-10 mg/ml hydrolysed fibre) is added. Appropriate blanks are used as controls. Cells are incubated for an hour at 37° C., after which the medium is removed. The cells are washed five times with PBS buffer, lysed, homogenised, diluted and plated to count colony-forming units, following standard procedures. Comparison of the amount of cfu's found with the blank and with one of the fractions, the inhibiting power of the fraction can be calculated as percentage reduction in binding. The table below summarises results of binding reduction. […] All other oligosaccharides (non arabinose-containing) have lower than 60% binding reduction activity.

`OC[C@H]1O[C@@H](O[C@H]2[C@H](O)[C@@H](O)C(O)O[C@@H]2CO)[C@H](O)[C@@H](O)[C@H]1O` (stereo partly shown) [lactose] was tested, and the “% binding reduction” value was 28%.

— patent publication US8227448B2, “Nutritional composition with health promoting action containing oligosaccharides” (priority 2000, dated 2012)
